Earlier results on 1 compound are cited in US10112976B2, “Process for the production of D-arginyl-2,6-dimethyl-L-tyrosyl-L-lysyl-L-phenylalaninamide” (Flamma S.P.A., priority 2014, dated 2018).

Non-standard residues stand in square brackets, D forms with d. Residues, ends and D or L forms follow the SMILES beside them. Dmt = Cc1cc(O)cc(C)c1C[C@H](N)C(=O)O

Series [1] concerns inner mitochondrial membrane.
In series [2] the test system is G93A mouse model of amyotrophic lateral sclerosis. As to conditions: 5 mg/kg/day i.p. starting at 30 days of age.
The subject of series [3] is rats with unilateral ureteral obstruction. As to conditions: intraperitoneal 1 and 3 mg/kg, 1 day prior to obstruction and every day for 14 days.
For series [4], the system named is N2A neuronal cell line. The following applies: <1 nM; N2A cells.
The target of series [5] is mu-opioid receptor (Homo sapiens, UniProt P35372). The following applies: as stated for WO 2013/086020, WO 2004/070054, WO 2005/072295.
In series [6] the test system is mouse pancreatic islets. The following applies: 3 mg/kg i.p. qd for 2 weeks.
Series [7] has as its system SH—SY5Y neuronal cell line. The following applies: <1 nM; SH—SY5Y cells.

Chain of mu-opioid receptor (P35372 whole entry): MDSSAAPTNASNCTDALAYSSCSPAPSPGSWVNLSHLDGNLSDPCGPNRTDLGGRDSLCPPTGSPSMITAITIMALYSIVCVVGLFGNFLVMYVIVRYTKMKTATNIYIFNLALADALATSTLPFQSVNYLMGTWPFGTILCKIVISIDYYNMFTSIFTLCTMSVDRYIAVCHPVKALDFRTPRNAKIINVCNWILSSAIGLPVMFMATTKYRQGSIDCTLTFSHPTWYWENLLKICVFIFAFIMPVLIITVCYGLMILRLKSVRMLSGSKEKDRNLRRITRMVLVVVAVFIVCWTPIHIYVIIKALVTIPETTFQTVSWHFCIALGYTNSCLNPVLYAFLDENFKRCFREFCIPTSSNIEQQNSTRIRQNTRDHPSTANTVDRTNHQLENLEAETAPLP

As for `Cc1cc(O)cc(C)c1C[C@H](NC(=O)[C@H](N)CCCNC(=N)N)C(=O)N[C@@H](CCCCN)C(=O)N[C@@H](Cc1ccccc1)C(N)=O` [D-Arginyl-2,6-dimethyl-L-tyrosyl-L-lysyl-L-phenylalaninamide] (H-[dR][Dmt]KF-NH2), the antioxidant activity entry in series [1] is “showed antioxidant activity”. Moreover, the disease onset entry in series [2] is listed as “significant delay”. In series [3], the interstitial fibrosis result was “significantly decreased”, the macrophage infiltration entry is listed as “significantly decreased” and the tubular damage entry is given as “significantly decreased”. Further, in series [4], the “intracellular reactive oxygen species” value is “significantly reduced”, the mitochondrial potential result was “increased” and the tBHP-induced apoptosis result is “prevented”. In addition, the “mu-opioid receptor agonist activity” value in series [5] is on record as “does not have mu-opioid receptor agonist activity”. Also, in series [6], the “apoptosis in pancreatic islets caused by streptozotocin” value was “prevented” and the “insulin reduction in pancreatic islets caused by streptozotocin” value was “prevented”. Besides, in series [7], the “intracellular reactive oxygen species” value was “significantly reduced”, the mitochondrial potential entry is “increased” and the tBHP-induced apoptosis entry is given as “prevented”.
